In patent US11840686B2, “Modulation of prekallikrein (PKK) expression” (Ionis Pharmaceuticals, Inc., priority 2013, dated 2023):
Strand notation (5' to 3'): a small letter for the sugar, then the base; units joined by * are phosphorothioate-linked, units joined directly phosphodiester-linked; [ ] holds rarer units or linkages, { } end groups; capitals alone tell only the bases. e = 2'-O-(2-methoxyethyl) (MOE); [5mC] = 5-methylcytosine; d = 2'-deoxy (DNA)

These substances were tested on human PKK mRNA (assay: Antisense inhibition of human PKK mRNA in HepaRG cells, 3,000 nM (Example 1)). Details: Table 1; PKK mRNA, HepaRG cells, 3,000 nM, electroporation, ~24 h, relative to untreated control cells.
Format: cell-based
Protocol: Antisense oligonucleotides were designed targeting a PKK nucleic acid and were tested for their effects on PKK mRNA in vitro. HepaRG™ cells, which are terminally differentiated hepatic cells derived from a human hepatic progenitor cell line and retain many characteristics of primary human hepatocytes (Lubberstedt M. et al., J. Pharmacol. Toxicol. Methods 2011 63: 59-68), were used in the screen.
The chimeric antisense oligonucleotides in the tables below were designed as 5-10-5 MOE gapmers. The gapmers are 20 nucleosides in length, wherein the central gap segment comprises of ten 2′-deoxynucleosides and is flanked by wing segments on the 5′ direction and the 3′ direction comprising five nucleosides each. Each nucleoside in the 5′ wing segment and each nucleoside in the 3′ wing segment has a 2′-O-methoxyethyl modification. The internucleoside linkages throughout each gapmer are phosphorothioate linkages. All cytosine residues throughout each gapmer are 5-methylcytosines. “Start site” indicates the 5′-most nucleoside to which the gapmer is targeted in the human gene sequence. “Stop site” indicates the 3′-most nucleoside to which the gapmer is targeted in the human gene sequence.
Cultured HepaRG™ cells at a density of 20,000 cells per well were transfected using electroporation with 3,000 nM antisense oligonucleotide. After a treatment period of approximately 24 hours, RNA was isolated from the cells and PKK mRNA levels were measured by quantitative real-time PCR. Human primer probe set RTS3454 (forward sequence […], designated herein as SEQ ID NO: 20; reverse sequence […], designated herein as SEQ ID NO: 21; probe sequence […], designated herein as SEQ ID NO: 22) was used to measure mRNA levels. PKK mRNA levels were adjusted according to total RNA content, as measured by RIBOGREEN®. The antisense oligonucleotides were tested in a series of experiments that had similar culture conditions. Results are presented as percent inhibition of PKK, relative to untreated control cells.

| Substance | % inhibition |
| --- | --- |
| 530951 (antisense e[5mC]*eA*eA*eA*e[5mC]*dA*d[5mC]*d[5mC]*dT*dT*dG*dG*dG*dT*dG*eG*eA*eA*eT*eG) [compound 530951] | 49% |
| 530952 (antisense e[5mC]*eT*eG*eA*eA*dT*dA*dG*d[5mC]*dA*dA*dA*d[5mC]*dA*d[5mC]*e[5mC]*eT*eT*eG*eG) [compound 530952] | 38% |
| 530953 (antisense eG*eA*eA*eA*eA*d[5mC]*dT*dG*dA*dA*dT*dA*dG*d[5mC]*dA*eA*eA*e[5mC]*eA*e[5mC]) [compound 530953] | 7% |
| 530954 (antisense eT*eG*eG*eA*eA*dG*dA*dA*dA*dA*d[5mC]*dT*dG*dA*dA*eT*eA*eG*e[5mC]*eA) [compound 530954] | 47% |
| 530955 (antisense e[5mC]*eA*eA*eA*e[5mC]*d[5mC]*dT*dT*dT*dT*d[5mC]*dT*d[5mC]*d[5mC]*dA*eT*eG*eT*e[5mC]*eA) [compound 530955] | 55% |
| 530956 (antisense eA*e[5mC]*eA*e[5mC]*eT*dA*dT*d[5mC]*dT*dT*dT*d[5mC]*dA*dA*dG*eA*eA*eG*e[5mC]*eA) [compound 530956] | 57% |
| 530957 (antisense eG*eG*e[5mC]*eA*eA*dG*d[5mC]*dA*d[5mC]*dT*dT*dA*dT*dT*dT*eG*eA*eT*eG*eA) [compound 530957] | 56% |
| 530958 (antisense eT*eT*eA*eA*eA*dA*dT*dT*dG*dA*d[5mC]*dT*d[5mC]*d[5mC]*dT*e[5mC]*eT*e[5mC]*eA*eT) [compound 530958] | 60% |
| 530960 (antisense eA*eT*eT*e[5mC]*eT*dT*d[5mC]*dA*dA*d[5mC]*dA*d[5mC]*dT*dG*d[5mC]*eT*eA*eA*e[5mC]*e[5mC]) [compound 530960] | 58% |
| 530961 (antisense eT*eT*eG*eG*e[5mC]*dA*dT*dT*d[5mC]*dT*dT*d[5mC]*dA*dA*d[5mC]*eA*e[5mC]*eT*eG*e[5mC]) [compound 530961] | 88% |
| 530962 (antisense e[5mC]*e[5mC]*eT*eT*eT*dT*dT*dT*dG*dG*d[5mC]*dA*dT*dT*d[5mC]*eT*eT*e[5mC]*eA*eA) [compound 530962] | 64% |
| 530963 (antisense eT*eG*eG*eT*eG*d[5mC]*dA*d[5mC]*d[5mC]*dT*dT*dT*dT*dT*dT*eG*eG*e[5mC]*eA*eT) [compound 530963] | 78% |
| 530964 (antisense e[5mC]*eT*eT*e[5mC]*eA*dG*dT*dG*dA*dG*dA*dA*dT*d[5mC]*d[5mC]*eA*eG*eA*eT*eT) [compound 530964] | 44% |
| 530966 (antisense eA*eA*eT*eT*eT*d[5mC]*dT*dG*dA*dA*dA*dG*dG*dG*d[5mC]*eA*e[5mC]*eA*eG*eG) [compound 530966] | 58% |
| 530968 (antisense e[5mC]*eA*eA*eG*eA*dT*dG*d[5mC]*dT*dG*dG*dA*dA*dG*dA*eT*eG*eT*eT*e[5mC]) [compound 530968] | 18% |
| 530969 (antisense eG*eT*eG*e[5mC]*e[5mC]*dA*d[5mC]*dT*dT*dT*d[5mC]*dA*dG*dA*dT*eG*eT*eT*eT*eT) [compound 530969] | 0% |
| 530972 (antisense eG*eT*eA*eG*eA*dG*dG*dA*dA*d[5mC]*dT*dT*dG*dG*dT*eG*eT*eG*e[5mC]*e[5mC]) [compound 530972] | 42% |
| 530973 (antisense eG*eA*eG*eG*eA*dG*dT*dA*dG*dA*dG*dG*dA*dA*d[5mC]*eT*eT*eG*eG*eT) [compound 530973] | 52% |
| 530974 (antisense eT*eT*e[5mC]*eT*eT*dG*dA*dG*dG*dA*dG*dT*dA*dG*dA*eG*eG*eA*eA*e[5mC]) [compound 530974] | 18% |
| 530975 (antisense eG*eT*eG*eT*eT*dT*dT*d[5mC]*dT*dT*dG*dA*dG*dG*dA*eG*eT*eA*eG*eA) [compound 530975] | 41% |
| 530976 (antisense eA*eT*eA*eT*eG*dG*dT*dG*dT*dT*dT*dT*d[5mC]*dT*dT*eG*eA*eG*eG*eA) [compound 530976] | 26% |

| Substance | % inhibition |
| --- | --- |
| 530977 (antisense eT*e[5mC]*e[5mC]*eA*eG*dA*dT*dA*dT*dG*dG*dT*dG*dT*dT*eT*eT*e[5mC]*eT*eT) [compound 530977] | 55% |
| 530978 (antisense e[5mC]*eT*eA*eT*eA*dT*d[5mC]*d[5mC]*dA*dG*dA*dT*dA*dT*dG*eG*eT*eG*eT*eT) [compound 530978] | 0% |
| 530979 (antisense eG*eG*eT*eT*eA*dA*dA*dA*dG*dG*d[5mC]*dT*dA*dT*dA*eT*e[5mC]*e[5mC]*eA*eG) [compound 530979] | 35% |
| 530980 (antisense eT*eT*eG*e[5mC]*eA*dG*dG*dT*dT*dA*dA*dA*dA*dG*dG*e[5mC]*eT*eA*eT*eA) [compound 530980] | 29% |
| 530981 (antisense eT*eT*e[5mC]*eT*eT*dT*dT*dG*d[5mC]*dA*dG*dG*dT*dT*dA*eA*eA*eA*eG*eG) [compound 530981] | 0% |
| 530982 (antisense eT*eA*eA*eA*eG*dT*dT*d[5mC]*dT*dT*dT*dT*dG*d[5mC]*dA*eG*eG*eT*eT*eA) [compound 530982] | 0% |
| 530983 (antisense eA*eT*eG*eG*e[5mC]*dA*dG*dG*dG*dT*dT*d[5mC]*dA*dG*dG*eT*eA*eA*eA*eG) [compound 530983] | 9% |
| 530984 (antisense eT*eT*eA*eG*eA*dA*dT*dG*dG*d[5mC]*dA*dG*dG*dG*dT*eT*e[5mC]*eA*eG*eG) [compound 530984] | 25% |
| 530985 (antisense eA*eA*eA*eT*eT*dT*dT*dA*dG*dA*dA*dT*dG*dG*d[5mC]*eA*eG*eG*eG*eT) [compound 530985] | 32% |
| 530986 (e[5mC]*eG*eG*eG*eT*dA*dA*dA*dT*dT*dT*dT*dA*dG*dA*eA*eT*eG*eG*e[5mC]; antisense) [compound 530986] | 62% |
| 530987 (eA*e[5mC]*eT*e[5mC]*e[5mC]*d[5mC]*dG*dG*dG*dT*dA*dA*dA*dT*dT*eT*eT*eA*eG*eA; antisense) [compound 530987] | 0% |
| 530989 (eT*e[5mC]*eT*e[5mC]*e[5mC]*dT*d[5mC]*d[5mC]*dA*dA*dA*dG*dT*d[5mC]*dA*eA*e[5mC]*eT*e[5mC]*e[5mC]; antisense) [compound 530989] | 28% |
| 530990 (eA*eT*eT*e[5mC]*eT*dT*d[5mC]*dT*d[5mC]*d[5mC]*dT*d[5mC]*d[5mC]*dA*dA*eA*eG*eT*e[5mC]*eA; antisense) [compound 530990] | 32% |
| 530991 (eA*eT*eT*e[5mC]*eA*dA*dT*dT*d[5mC]*dT*dT*d[5mC]*dT*d[5mC]*d[5mC]*eT*e[5mC]*e[5mC]*eA*eA; antisense) [compound 530991] | 43% |
| 530993 (e[5mC]*eA*eA*eA*e[5mC]*dA*dT*dT*d[5mC]*dA*d[5mC]*dT*d[5mC]*d[5mC]*dT*eT*eT*eA*eA*e[5mC]; antisense) [compound 530993] | 30% |
| 530994 (e[5mC]*eT*eT*eG*eG*d[5mC]*dA*dA*dA*d[5mC]*dA*dT*dT*d[5mC]*dA*e[5mC]*eT*e[5mC]*e[5mC]*eT; antisense) [compound 530994] | 50% |
| 530995 (eA*eG*eT*e[5mC]*eT*d[5mC]*dT*dT*dG*dG*d[5mC]*dA*dA*dA*d[5mC]*eA*eT*eT*e[5mC]*eA; antisense) [compound 530995] | 49% |
| 530996 (eT*eG*eA*e[5mC]*eA*dG*d[5mC]*dG*dA*dA*dT*d[5mC]*dA*dT*d[5mC]*eT*eT*eT*eG*eT; antisense) [compound 530996] | 51% |
| 530997 (eA*eA*eA*eA*e[5mC]*dT*dG*dA*d[5mC]*dA*dG*d[5mC]*dG*dA*dA*eT*e[5mC]*eA*eT*e[5mC]; antisense) [compound 530997] | 39% |
| 530998 (eA*eG*eT*eG*eA*dA*dA*dA*dA*d[5mC]*dT*dG*dA*d[5mC]*dA*eG*e[5mC]*eG*eA*eA; antisense) [compound 530998] | 0% |
| 530999 (e[5mC]*eA*eG*eT*e[5mC]*dT*dT*d[5mC]*dT*dG*dG*dG*dA*dG*dT*eA*eA*eA*eG*eA; antisense) [compound 530999] | 31% |
